pIC50: −log10 of the molar value. Some results are limits rather than exact numbers.

The assay has as its system parental untransformed BaF3 cells. Put plainly: Tritiated thymidine uptake cell proliferation assay, parental BaF3. In kind it is cell-based. The following applies: Mus musculus, BaF3, read-out: Parental IC50. As for the experimental part: Tritiated Thymidine Uptake Cell Proliferation Assay
The parent untransformed BaF3 cells and ALK-negative cells are used as controls. Cells are seeded in U-bottomed 96-well plates at 10 000 cells/well in a volume of 100 μL in supplemented medium. In the case of the parent untransformed BaF3 cells, the medium is supplemented with IL-3. Serial dilutions of inhibitors are added to the appropriate wells and volumes adjusted to 200 μL. Controls were treated with the equivalent volume of vehicle, DMSO, alone. Plates are incubated at 37° C. for 72 h. ^3[H]-thymidine (1 μCiCi/well) is added for the last 8 h of incubation. Cells are harvested on to paper filters and ^3[H]-thymidine incorporation is measured using a β scintillation counter (1430 MicroBeta, Wallac, Turku, Finland). The 50% inhibitory concentration (IC50) is defined as the concentration of inhibitor, expressed in micromolar, that give a 50% decrease in ^3[H]-thymidine uptake compared with controls.
For orientation: pIC50 means −log10 of the IC50, conventionally taken in molar units. Take `Cc1cc(-c2csc(NC(=O)c3ccc(CN4CCN(C)CC4)cc3)n2)ccc1C#Cc1ccccc1C(F)(F)F` [Example 11, N-(4-(3-methyl-4-((2-(trifluoromethyl)phenyl)ethynyl)phenyl)thiazol-2-yl)-4-((4-methylpiperazin-1-yl)methyl)benzamide]: the pIC50 is 5.49. Turning to `CN1CCN(Cc2ccc(C(=O)Nc3nc(-c4cccc(C#C[Si](c5ccccc5)(c5ccccc5)C(C)(C)C)c4)cs3)cc2)CC1` [Example 25, N-(4-(3-((tert-butyldiphenylsilyl)ethynyl)phenyl)thiazol-2-yl)-4-((4-methylpiperazin-1-yl)methyl)benzamide], the pIC50 is 4.92.

As to `COc1ccccc1C#Cc1cc(-c2csc(NC(=O)c3ccc(CN4CCN(C)CC4)cc3)n2)ccc1C` [Example 8, N-(4-(3-((2-methoxyphenyl)ethynyl)-4-methylphenyl)thiazol-2-yl)-4-((4-methylpiperazin-1-yl)methyl)benzamide], the pIC50 was 5.82. As to `CCCCC#Cc1cccc(-c2csc(NC(=O)c3ccc(CN4CCN(C)CC4)cc3)n2)c1` [Example 20, N-(4-(3-(hex-1-yn-1-yl)phenyl)thiazol-2-yl)-4-((4-methylpiperazin-1-yl)methyl)benzamide], the pIC50 was 5.14. To `CC(C)OC(=O)CNCc1ccc(C(=O)Nc2nc(-c3cccc(C#C[Si](C(C)C)(C(C)C)C(C)C)c3)cs2)cc1` [Example 47, isopropyl 2-((4-((4-(3-((triisopropylsilyl)ethynyl)phenyl)thiazol-2-yl)carbamoyl)benzyl)amino)acetate] belongs less than 4.60. To `Cc1ccc(-c2csc(NC(=O)c3ccc(CN4CCN(C)CC4)cc3)n2)cc1C#Cc1ccccc1` [Example 4, N-(4-(4-methyl-3-(phenylethynyl)phenyl)thiazol-2-yl)-4-((4-methylpiperazin-1-yl)methyl)benzamide] belongs 5.28. In the case of `CC(C)[Si](OCC#Cc1cccc(-c2csc(NC(=O)c3ccc(CN4CCN(C)CC4)cc3)n2)c1)(C(C)C)C(C)C` [Example 22, 4-((4-methylpiperazin-1-yl)methyl)-N-(4-(3-(3-((triisopropylsilyl)oxy)prop-1-yn-1-yl)phenyl)thiazol-2-yl)benzamide] it was 5.07; in that of `CN1CCN(Cc2ccc(C(=O)Nc3nc(-c4cccc(C#CCO[Si](c5ccccc5)(c5ccccc5)C(C)(C)C)c4)cs3)cc2)CC1` [Example 21, N-(4-(3-(3-((tert-butyldiphenylsilyl)oxy)prop-1-yn-1-yl)phenyl)thiazol-2-yl)-4-((4-methylpiperazin-1-yl)methyl)benzamide], 4.92; in that of `Cc1ccc(-c2csc(NC(=O)c3ccc(CN4CCN(C)CC4)cc3)n2)cc1C#Cc1ccccc1C(F)(F)F` [Example 7, N-(4-(4-methyl-3-((2-(trifluoromethyl)phenyl)ethynyl)phenyl)thiazol-2-yl)-4-((4-methylpiperazin-1-yl)methyl)benzamide], 5.30. As for `CC[Si](C#Cc1cccc(-c2csc(NC(=O)c3ccc(CN4CCN(C)CC4)cc3)n2)c1)(CC)CC` [Example 17, 4-((4-methylpiperazin-1-yl)methyl)-N-(4-(3-((triethylsilyl)ethynyl)phenyl)thiazol-2-yl)benzamide], the pIC50 is 6.34. For the molecule `CN1CCN(Cc2ccc(C(=O)Nc3nc(-c4cccc(C#Cc5ccc(F)cc5)c4)cs3)cc2)CC1` [Example 32, N-(4-(3-((4-fluorophenyl)ethynyl)phenyl)thiazol-2-yl)-4-((4-methylpiperazin-1-yl)methyl)benzamide], the negative logarithm of the IC50 (pIC50) is 5.62.

For `CN1CCN(Cc2ccc(C(=O)Nc3nc(-c4cccc(C#CCO[Si](C)(C)C(C)(C)C)c4)cs3)cc2)CC1` [Example 23, N-(4-(3-(3-((tert-butyldimethylsilyl)oxy)prop-1-yn-1-yl)phenyl)thiazol-2-yl)-4-((4-methylpiperazin-1-yl)methyl)benzamide], the pIC50 was 5.23. For the molecule `Cc1ccc(C#Cc2cccc(-c3csc(NC(=O)c4ccc(CN5CCN(C)CC5)cc4)n3)c2)cc1` [Example 2, 4-((4-methylpiperazin-1-yl)methyl)-N-(4-(3-(p-tolylethynyl)phenyl)thiazol-2-yl)benzamide], the pIC50 was 5.26. On to `CC(C)(C)[Si](C)(C)C#Cc1cccc(-c2csc(NC(=O)c3ccc(CN4CCOCC4)cc3)n2)c1` [Example 40, N-(4-(3-((tert-butyldimethylsilyl)ethynyl)phenyl)thiazol-2-yl)-4-(morpholinomethyl)benzamide], for which the pIC50 is 4.74. On to `Cc1cc(-c2csc(NC(=O)c3ccc(CN4CCN(C)CC4)cc3)n2)ccc1C#C[Si](C(C)C)(C(C)C)C(C)C` [Example 15, N-(4-(3-methyl-4-((triisopropylsilyl)ethynyl)phenyl)thiazol-2-yl)-4-((4-methylpiperazin-1-yl)methyl)benzamide], for which the pIC50 is 4.85.

Take `CN1CCN(Cc2ccc(C(=O)Nc3nc(-c4cccc(C#Cc5cc(C(F)(F)F)cc(C(F)(F)F)c5)c4)cs3)cc2)CC1` [Example 33, N-(4-(3-((3,5-bis(trifluoromethyl)phenyl)ethynyl)phenyl)thiazol-2-yl)-4-((4-methylpiperazin-1-yl)methyl)benzamide]: the pIC50 is 5.15. In the case of `CC(C)[Si](C#Cc1ccc(-c2csc(NC(=O)c3ccc(CN4CCN(C)CC4)cc3)n2)cc1C#C[Si](C(C)C)(C(C)C)C(C)C)(C(C)C)C(C)C` [Example 16, N-(4-(3,4-bis((triisopropylsilyl)ethynyl)phenyl)thiazol-2-yl)-4((4-methylpiperazin-1-yl)methyl)benzamide] it was less than 4.30; in that of `Cc1ccc(-c2csc(NC(=O)c3ccc(CN4CCN(C)CC4)cc3)n2)cc1C#C[Si](C(C)C)(C(C)C)C(C)C` [Example 14, N-(4-(4-methyl-3-((triisopropylsilyl)ethynyl)phenyl)thiazol-2-yl)-4-((4-methylpiperazin-1-yl)methyl)benzamide], 5.11; in that of `C#Cc1cccc(-c2csc(NC(=O)c3ccc(CN4CCN(C)CC4)cc3)n2)c1` [Example 49, N-(4-(3-ethynylphenyl)thiazol-2-yl)-4-((4-methylpiperazin-1-yl)methyl)benzamide], 5.40. In the case of `CN1CCN(Cc2ccc(C(=O)Nc3nc(-c4cccc(C#Cc5ccccc5C(F)(F)F)c4)cs3)cc2)CC1` [Example 12, 4-((4-methylpiperazin-1-yl)methyl)-N-(4-(3-((2-(trifluoromethyl)phenyl)ethynyl)phenyl)thiazol-2-yl)benzamide] it was 5.74; in that of `Cc1ccc(C#Cc2ccc(-c3csc(NC(=O)c4ccc(CN5CCN(C)CC5)cc4)n3)cc2C)cc1` [Example 10, N-(4-(3-methyl-4-(p-tolylethynyl)phenyl)thiazol-2-yl)-4-((4-methylpiperazin-1-yl)methyl)benzamide], 5.52. `CC(C)[Si](C#Cc1cccc(-c2csc(NC(=O)c3ccc(CN4CCOCC4)cc3)n2)c1)(C(C)C)C(C)C` [Example 38, 4-(morpholinomethyl)-N-(4-(3-((triisopropylsilyl)ethynyl)phenyl)thiazol-2-yl)benzamide]: the pIC50 is less than 4.30. In the case of `CC(C)[Si](C#Cc1cccc(-c2csc(NC(=O)c3ccc(CN4CCN(C)CC4)cc3)n2)c1)(C(C)C)C(C)C` [Example 48, 4-((4-methylpiperazin-1-yl)methyl)-N-(4-(3-((triisopropylsilyl)ethynyl)phenyl)thiazol-2-yl)benzamide], the pIC50 is 4.89.

Consider `CC(C)[Si](OCC#Cc1cccc(-c2csc(NC(=O)c3ccc(-c4ccc(C(=O)N5CCN(C)CC5)cc4)o3)n2)c1)(C(C)C)C(C)C` [Example 28, 5-(4-(4-methylpiperazine-1-carbonyl)phenyl)-N-(4-(3-(3-((triisopropylsilyl)oxy)prop-1-yn-1-yl)phenyl)thiazol-2-yl)furan-2-carboxamide], for which the pIC50 was 5.43. In the case of `CN1CCN(Cc2ccc(C(=O)Nc3nc(-c4cccc(C#Cc5ccccc5OC(F)(F)F)c4)cs3)cc2)CC1` [Example 42, 4-((4-methylpiperazin-1-yl)methyl)-N-(4-(3-((2-(trifluoromethoxy)phenyl)ethynyl)phenyl)thiazol-2-yl)benzamide] it was 5.59.

Consider `CN1CCN(C(=O)c2ccc(-c3ccc(C(=O)Nc4nc(-c5cccc(C#Cc6ccccc6C(F)(F)F)c5)cs4)o3)cc2)CC1` [Example 29, 5-(4-(4-methylpiperazine-1-carbonyl)phenyl)-N-(4-(3-((2-(trifluoromethyl)phenyl)ethynyl)phenyl)thiazol-2-yl)furan-2-carboxamide], for which the pIC50 was 5.00. In the case of `CC(C)(C)[Si](C#Cc1cccc(-c2csc(NC(=O)c3ccc(CN4CCOCC4)cc3)n2)c1)(c1ccccc1)c1ccccc1` [Example 41, N-(4-(3-((tert-butyldiphenylsilyl)ethynyl)phenyl)thiazol-2-yl)-4-(morpholinomethyl)benzamide] it was less than 4.30; in that of `CN1CCN(Cc2ccc(C(=O)Nc3nc(-c4cccc(C#CC5=CCCCC5)c4)cs3)cc2)CC1` [Example 19, N-(4-(3-(cyclohex-1-en-1-ylethynyl)phenyl)thiazol-2-yl)-4-((4-methylpiperazin-1-yl)methyl)benzamide], 6.31; in that of `CC(C)[Si](C#Cc1cccc(-c2csc(NC(=O)c3ccc(Cn4cnnn4)cc3)n2)c1)(C(C)C)C(C)C` [Example 45], 5.10. Take `CN1CCN(Cc2ccc(C(=O)Nc3nc(-c4ccc(C#C[Si](C)(C)C(C)(C)C)cc4)cs3)cc2)CC1` [Example 37, N-(4-(4-((tert-butyldimethylsilyl)ethynyl)phenyl)thiazol-2-yl)-4-((4-methylpiperazin-1-yl)methyl)benzamide]: the pIC50 was 5.62.
